In patent EP2966448B1, “METHOD FOR THE PREDICTION OR PROGNOSIS OF THE RESPONSE OF A HUMAN SUBJECT SUFFERING FROM CANCER TO TREATMENT WITH AN ANTAGONIST OF THE NK1 RECEPTOR” (priority 2013, dated 2014):
Where two headings read alike, the source gives them in different places.

Assays:
[1] = system: Pancreatic carcinoma (Adenocarcinoma); assay: Inhibition of primary tumor cell cultures vs Kras mutation (Example 2); type: cell-based, human; settings: Pancreatic carcinoma (Adenocarcinoma), 100 micromolar
Description: (§1) Cell cultures. […] Briefly, small pieces of the tumors were digested into a hyaluronidase solution (Sigma-Aldrich, USA) at a concentration of 1 mg/ml during 15 minutes at 37°C, and then they were treated with 6 mg/ml of collagenase type IV (Invitrogen) during 2 hours at 37°C. Consecutively, cells were washed, and resuspended in the DMEM culture medium with high concentration of glucose (Dulbecco's Modified Eagle's Medium, Invitrogen) supplemented with 1% of antibiotics-antimycotics (Invitrogen) and with 1% of sodium pyruvate (Invitrogen), and the cells were seeded in culture slides at a concentration of 10.000 cells per square centimeter. When cells reached confluence, the adherent cells were separated using sterile trypsin at 0,5% (Invitrogen) and they were used among passages 3 and 9. For the assays shown next, tumor cells were seeded on slides at a concentration of 25.000 cells per well. A total of 6 wells containing the tumor cells were used as survival control. […] All the cultures were kept during 48 hours and later on recollected for their analysis.
(§2) In each case the presence or not of mutations in K-ras gene was determined.
(§3) To determine the existence of mutations in the K-ras gene DNA from cancer tumor cells was extracted from samples obtained from the different cancer tumor cells, using DNA extraction kits from Takara (Madison, WI, US) or Ambion (Huntingdon, Cambridgeshire, United Kingdom), following the manufacturer's instructions, and as it has been previously published (Di Fiore F, et al. 2007). Consecutively it was analyzed by sequencing the exon 2 of the KRAS gene, , by means of PCR amplification from previously extracted cancer tumor DNA, using the following sense primer (SEQ ID NO. 15): 5'-[sequence]-3' and anti-sense primer (SEQ ID NO. 16): 5'-[sequence]-3'. After the purification using the Qiagen extraction kit, the PCR products were sequenced using the Big Dye Terminator Kit V3.1 (Applied Biosystems, Foster City, CA, U.S.) and an ABI Prism 377 or 3100 DNA sequencer (Applied Biosystems). The presence of a heterozygous mutation in the KRAS gene in cancer tumor cells of the cultures was defined as the appearance of a mutant peak of a height of at least a third of the wild type. All the sequence analysis were executed at least twice in two independent PCR.
(§4) The antibody against NK1 receptor (Table 16) was used at 1/50 concentration. The percentages of inhibition are expressed in percentage of variation in relation to control ± standard deviation.

Colon carcinoma = assay: Inhibition of primary tumor cell cultures (48 hours) vs NK1 receptor immunostaining (Example 1); type: cell-based; settings: Homo sapiens, 1 micromolar, read-out: Percentage of inhibition of cell cultures
Description: (§5) Cell cultures. To obtain tumor cells from human primary tumors we used the method described in De Bari et al. (De Bari et al. 2001). Briefly, small pieces of the tumors were digested into a hyaluronidase solution (Sigma-Aldrich, USA) at a concentration of 1 mg/ml during 15 minutes at 37°C, and then they were treated with 6 mg/ml of collagenase type IV (Invitrogen) during 2 hours at 37°C. Consecutively, cells were washed, and resuspended in the DMEM culture medium with high concentration of glucose (Dulbecco's Modified Eagle's Medium, Invitrogen) supplemented with 1% of antibiotics-antimycotics (Invitrogen) and with 1% of sodium pyruvate (Invitrogen), and the cells were seeded in culture slides at a concentration of 10.000 cells per square centimeter. When cells reached confluence, the adherent cells were separated using sterile trypsin at 0,5% (Invitrogen) and they were used among passages 3 and 9. For the assays shown next, tumor cells were seeded on slides at a concentration of 25.000 cells per well. A total of 6 wells containing the tumor cells were used as survival control. […] All the cultures were kept during 48 hours and later on recollected for their analysis.
(§6) Immunohistochemistry techniques. The presence of NK1 receptors was also analyzed using immunohistochemistry techniques. Briefly, a sample of each of the cultures of the cell lines used in the present invention, was centrifuged (5 minutes at 1.500 rpm) and the pellet obtained was dehydrated using increasing concentrations of ethanol and, finally, xylol. Then, said dehydrated samples were embedded in paraffin, creating a block of cells. Such paraffin blocks were cut with a microtome at 5 microns thickness, and were placed on microscope slides adequate to perform immunohistochemistry techniques. Consecutively, they were de-paraffinized by immersing them in xylol, to be finally hydrated using a solution containing decreasing concentrations of ethanol, and finally submerged them into water. […] After this, the samples were left to cool down at room temperature for 10 minutes. The endogenous peroxidase activity was blocked with 3% peroxide of hydrogen for 30 minutes at room temperature. After washing the samples with 0.05 M of Tris buffer, they were incubated with 10% non-immune pork serum at for 30 minutes at room temperature. To analyze the expression of NK1 receptors, the cellular samples were incubated in the presence of anti-NK1 antibodies (S8305, Sigma-Aldrich) diluted 1:1000, overnight at 4°C. Afterwards, the samples were washed in Tris buffer 0.05 M at room temperature. The next step was the addition of Envision System-HRP (Dako) reagents for 30 minutes at room temperature. Then, the samples were washed again in Tris buffer 0.05 M and the immunoreactivity was visualized through light microscopy with a chromogenic solution containing 3,3'-Diaminobenzidine (DAB+; Dako, USA). To differentiate the cell nuclei, they were slightly stained with hematoxylin. As negative control, it was used samples not incubated with the primary antibody anti-NK1, which was replaced by non-immune serum. All the samples were evaluated.
(§7) To value the immunostaining in each of the cases six cuts were performed to be analyzed by the immunohistochemistry technique. In each of the six cuts, it was counted cells in 20 fields (magnification 400x) using an Olympus microscope (model CX31). In each field it was counted the total number of cells and the number of cells presenting immunostaining, calculating afterwards the percentage of cells which presented immunostaining.

Burkitt Lymphoma [2] = assay: Inhibition of primary tumor cell cultures vs Kras mutation (Example 2); type: cell-based, human; settings: Burkitt Lymphoma, 100 micromolar
Description: as §5, §2, §3, §4

[3] = system: Lung carcinoma (small cell type); assay: Inhibition of primary tumor cell cultures (48 hours) vs NK1 receptor immunostaining (Example 1); type: cell-based; settings: Homo sapiens, 1 micromolar, read-out: Percentage of inhibition of cell cultures
Description: as §5, §6, §7

Fibrosarcoma = assay: as above; type: cell-based; settings: Homo sapiens, 1 micromolar, read-out: Percentage of inhibition of cell cultures
Description: as §5, §6, §7

[4] = system: Lung carcinoma (small cell lung carcinoma); assay: Inhibition of primary tumor cell cultures vs Kras mutation (Example 2); type: cell-based, human; settings: Lung carcinoma (small cell lung carcinoma), 100 micromolar
Description: (§8) To obtain tumor cells from human primary tumors we used the method described in De Bari et al. (De Bari et al. 2001). Briefly, small pieces of the tumors were digested into a hyaluronidase solution (Sigma-Aldrich, USA) at a concentration of 1 mg/ml during 15 minutes at 37°C, and then they were treated with 6 mg/ml of collagenase type IV (Invitrogen) during 2 hours at 37°C. Consecutively, cells were washed, and resuspended in the DMEM culture medium with high concentration of glucose (Dulbecco's Modified Eagle's Medium, Invitrogen) supplemented with 1% of antibiotics-antimycotics (Invitrogen) and with 1% of sodium pyruvate (Invitrogen), and the cells were seeded in culture slides at a concentration of 10.000 cells per square centimeter. When cells reached confluence, the adherent cells were separated using sterile trypsin at 0,5% (Invitrogen) and they were used among passages 3 and 9. For the assays shown next, tumor cells were seeded on slides at a concentration of 25.000 cells per well. A total of 6 wells containing the tumor cells were used as survival control. […] All the cultures were kept during 48 hours and later on recollected for their analysis.
as §2, §3, §4

Endometrium carcinoma = assay: cells; settings: Homo sapiens, 1 micromolar
Description: as §5, §6, §7

[5] = system: Ovarian carcinoma (Adenocarcinoma); assay: Inhibition of primary tumor cell cultures vs Kras mutation (Example 2); type: cell-based, human; settings: Ovarian carcinoma (Adenocarcinoma), 100 micromolar
Description: as §1, §2, §3, §4

Gastric carcinoma = assay: Inhibition of primary tumor cell cultures (48 hours) vs NK1 receptor immunostaining (Example 1); type: cell-based; settings: Homo sapiens, 1 micromolar, read-out: Percentage of inhibition of cell cultures
Description: as §5, §6, §7

Burkitt Lymphoma [6] = assay: as above; type: cell-based; settings: Homo sapiens, 1 micromolar, read-out: Percentage of inhibition of cell cultures
Description: as §5, §6, §7

[7] = system: Gastric carcinoma (Adenocarcinoma); assay: Inhibition of primary tumor cell cultures vs Kras mutation (Example 2); type: cell-based, human; settings: Gastric carcinoma (Adenocarcinoma), 100 micromolar
Description: as §1, §2, §3, §4

[8] = system: Lung carcinoma (non small cell lung carcinoma); assay: as above; type: cell-based, human; settings: Lung carcinoma (non small cell lung carcinoma), 100 micromolar
Description: as §8, §2, §3, §4

Ewing Sarcoma = assay: Inhibition of primary tumor cell cultures (48 hours) vs NK1 receptor immunostaining (Example 1); type: cell-based; settings: Homo sapiens, 1 micromolar, read-out: Percentage of inhibition of cell cultures
Description: as §5, §6, §7

[9] = system: Thyroid carcinoma (papillary carcinoma); assay: Inhibition of primary tumor cell cultures vs Kras mutation (Example 2); type: cell-based, human; settings: Thyroid carcinoma (papillary carcinoma), 100 micromolar
Description: as §8, §2, §3, §4

[10] = system: human primary tumor cells; assay: Inhibition of primary tumor cell cultures vs absence or presence of AKT protein (Example 4; tumor type per table line); type: cell-based; settings: cancer cell cultures showing more presence of AKT, compared; non-peptidic antagonists 100 micromolar, antibody 1/50
Description: as §1
Afterwards, the cells were cultured in presence of several antagonists of the NK1 receptor.
In each case it was determined the presence or absence of the AKT protein effector downstream in the PI3 Kinases pathway.
To determine the presence of the AKT protein in the different cultures Western Blot technique was performed (following the description in example 1-Western Blot section), but using as primary antibody with reference: Akt (pan) (11E7) Rabbit mAb (4685, Cell Signalling).
The antibody against NK1 receptor (Table 26) was used at 1/50 concentration. The percentages of inhibition are expressed in percentage of variation in relation to control ± standard deviation.

Renal cell carcinoma = assay: Inhibition of primary tumor cell cultures (48 hours) vs NK1 receptor immunostaining (Example 1); type: cell-based; settings: Homo sapiens, 1 micromolar, read-out: Percentage of inhibition of cell cultures
[11] = Cases with Kras non-mutated (wild type)
[12] = NK1 receptor immunostaining Group 1 (less than 20% of the cells)
[13] = NK1 receptor immunostaining Group 2 (20-80% of the cells)
[14] = NK1 receptor immunostaining Group 3 (more than 80% of the cells)
[15] = NK1 receptor immunostaining Intensity grade 1
[16] = NK1 receptor immunostaining Intensity grade 2
[17] = NK1 receptor immunostaining Intensity grade 3

## Cc1cc(F)ccc1[C@H]1CNCCN1C(=O)N(C)[C@H](C)c1cc(C(F)(F)F)cc(C(F)(F)F)c1 [Vestipitant]
[1]; Cases with Kras mutated
  Percentage of inhibition of cell cultures: 24±4 percentage
[1]; [11]
  Percentage of inhibition of cell cultures: 97±4 percentage
Colon carcinoma; [12]
  inhibition at 1 µM: 12 ± 4%
Colon carcinoma; [13]
  inhibition at 1 µM: 45 ± 3%
Colon carcinoma; [14]
  inhibition at 1 µM: 91 ± 2%
Colon carcinoma; [15]
  inhibition at 1 µM: 18 ± 5%
Colon carcinoma; [16]
  inhibition at 1 µM: 46 ± 4%
Colon carcinoma; [17]
  inhibition at 1 µM: 91 ± 5%
Burkitt Lymphoma [2]; Cases with Kras mutated
  Percentage of inhibition of cell cultures: 24±3 percentage
Burkitt Lymphoma [2]; [11]
  Percentage of inhibition of cell cultures: 95±3 percentage
[3]; [12]
  inhibition at 1 µM: 16 ± 3%
[3]; [13]
  inhibition at 1 µM: 46 ± 3%
[3]; [14]
  inhibition at 1 µM: 93 ± 3%
[3]; [15]
  inhibition at 1 µM: 18 ± 3%
[3]; [16]
  inhibition at 1 µM: 45 ± 3%
[3]; [17]
  inhibition at 1 µM: 93 ± 3%
Fibrosarcoma; [12]
  inhibition at 1 µM: 16 ± 3%
Fibrosarcoma; [13]
  inhibition at 1 µM: 45 ± 3%
Fibrosarcoma; [14]
  inhibition at 1 µM: 91 ± 3%
Fibrosarcoma; [15]
  inhibition at 1 µM: 18 ± 2%
Fibrosarcoma; [16]
  inhibition at 1 µM: 47 ± 3%
Fibrosarcoma; [17]
  inhibition at 1 µM: 91 ± 2%
[4]; Cases with Kras mutated
  Percentage of inhibition of cell cultures: 23±4 percentage
[4]; [11]
  Percentage of inhibition of cell cultures: 95±4 percentage
Endometrium carcinoma; read-out: Percentage of inhibition of cell cultures, NK1 receptor immunostaining Group 1 (less than 20% of the cells)
  inhibition at 1 µM: 15 ± 3%
Endometrium carcinoma; read-out: Percentage of inhibition of cell cultures, NK1 receptor immunostaining Group 2 (20-80% of the cells)
  inhibition at 1 µM: 44 ± 3%
Endometrium carcinoma; read-out: Percentage of inhibition of cell cultures, NK1 receptor immunostaining Group 3 (more than 80% of the cells)
  inhibition at 1 µM: 93 ± 6%
Endometrium carcinoma; read-out: Percentage of inhibition of cell cultures, NK1 receptor immunostaining Intensity grade 1
  inhibition at 1 µM: 18 ± 2%
Endometrium carcinoma; read-out: Percentage of inhibition of cell cultures, NK1 receptor immunostaining Intensity grade 2
  inhibition at 1 µM: 47 ± 4%
Endometrium carcinoma; read-out: Percentage of inhibition of cell cultures, NK1 receptor immunostaining Intensity grade 3
  inhibition at 1 µM: 93 ± 5%
[5]; Cases with Kras mutated
  Percentage of inhibition of cell cultures: 27±5 percentage
[5]; [11]
  Percentage of inhibition of cell cultures: 96±6 percentage
Gastric carcinoma; [12]
  inhibition at 1 µM: 11 ± 3%
Gastric carcinoma; [13]
  inhibition at 1 µM: 48 ± 3%
Gastric carcinoma; [14]
  inhibition at 1 µM: 92 ± 3%
Gastric carcinoma; [15]
  inhibition at 1 µM: 19 ± 4%
Gastric carcinoma; [16]
  inhibition at 1 µM: 49 ± 4%
Gastric carcinoma; [17]
  inhibition at 1 µM: 92 ± 4%
Burkitt Lymphoma [6]; [12]
  inhibition at 1 µM: 12 ± 3%
Burkitt Lymphoma [6]; [13]
  inhibition at 1 µM: 45 ± 3%
Burkitt Lymphoma [6]; [14]
  inhibition at 1 µM: 92 ± 4%
Burkitt Lymphoma [6]; [15]
  inhibition at 1 µM: 15 ± 3%
Burkitt Lymphoma [6]; [16]
  inhibition at 1 µM: 47 ± 5%
Burkitt Lymphoma [6]; [17]
  inhibition at 1 µM: 92 ± 6%
[7]; Cases with Kras mutated
  Percentage of inhibition of cell cultures: 24±4 percentage
[7]; [11]
  Percentage of inhibition of cell cultures: 96±4 percentage
[8]; Cases with Kras mutated
  Percentage of inhibition of cell cultures: 24±5 percentage
[8]; [11]
  Percentage of inhibition of cell cultures: 96±6 percentage
Ewing Sarcoma; [12]
  inhibition at 1 µM: 16 ± 3%
Ewing Sarcoma; [13]
  inhibition at 1 µM: 46 ± 4%
Ewing Sarcoma; [14]
  inhibition at 1 µM: 90 ± 6%
Ewing Sarcoma; [15]
  inhibition at 1 µM: 16 ± 4%
Ewing Sarcoma; [16]
  inhibition at 1 µM: 47 ± 3%
Ewing Sarcoma; [17]
  inhibition at 1 µM: 90 ± 6%
[9]; Cases with Kras mutated
  Percentage of inhibition of cell cultures: 26±4 percentage
[9]; [11]
  Percentage of inhibition of cell cultures: 94±5 percentage
[10]
  inhibition of cell proliferation: higher inhibition
Renal cell carcinoma; [12]
  inhibition at 1 µM: 10 ± 4%
Renal cell carcinoma; [13]
  inhibition at 1 µM: 45 ± 3%
